The values below are quoted from earlier work in US20050266077A1, “Resorbable matrices with coatings for delivery of bioactive compounds” (Royal Biomedical, Inc., priority 2002, published 2005).

The conditions of the series: exothermic reaction, matrix temperatures as high as 100° C.

Take polymyxin: the inactivation of antibiotic entry was “inactivated”.
